According to patent US6653300B2, “Pyrazole compounds useful as protein kinase inhibitors” (Vertex Pharmaceuticals Incorporated, priority 2000, dated 2003):

Assays:
Aurora-2 = target: T1, Aurora-2 (Homo sapiens, UniProt O14965); test: Ki determination for the inhibition of Aurora-2 (coupled enzyme assay); format: biochemical; details: 70 nM Aurora-2, 30° C.
T1 sequence (O14965 1-403): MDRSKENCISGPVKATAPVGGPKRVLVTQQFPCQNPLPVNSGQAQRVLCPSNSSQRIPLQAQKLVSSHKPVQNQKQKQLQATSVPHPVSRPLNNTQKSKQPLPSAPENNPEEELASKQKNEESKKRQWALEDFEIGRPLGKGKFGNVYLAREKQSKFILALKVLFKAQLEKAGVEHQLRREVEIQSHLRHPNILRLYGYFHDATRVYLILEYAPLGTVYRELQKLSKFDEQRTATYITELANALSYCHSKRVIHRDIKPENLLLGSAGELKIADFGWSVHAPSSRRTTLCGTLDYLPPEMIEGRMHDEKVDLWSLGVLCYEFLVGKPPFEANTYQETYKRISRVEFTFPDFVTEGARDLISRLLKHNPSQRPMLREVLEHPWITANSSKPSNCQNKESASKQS
Description: Compounds were screened in the following manner for their ability to inhibit Aurora-2 using a standard coupled enzyme assay (Fox et al (1998) Protein Sci 7, 2249).
To an assay stock buffer solution containing 0.1M HEPES 7.5, 10 mM MgCl2, 1 mM DTT, 25 mM NaCl, 2.5 mM phosphoenolpyruvate, […], 30 mg/ml pyruvate kinase, 10 mg/ml lactate dehydrogenase, […], and 800 μM peptide (LRRASLG, American Peptide, Sunnyvale, Calif.) was added a DMSO solution of a compound of the present invention to a final concentration of 30 μM. The resulting mixture was incubated at 30° C. for 10 min. The reaction was initiated by the addition of 10 μL of Aurora-2 stock solution to give a final concentration of 70 nM in the assay. The rates of reaction were obtained by monitoring absorbance at 340 nm over a 5 minute read time at 30° C. using a BioRad Ultramark plate reader (Hercules, Calif.). The Ki values were determined from the rate data as a function of inhibitor concentration.

GSK-3β (AA 1-420) = target: T2, GSK-3β (AA 1-420) (Homo sapiens, UniProt P49841); test: Ki determination for the inhibition of GSK-3 (coupled enzyme system); format: biochemical; details: 20 μM ATP, 20 nM GSK-3β, 30° C.
T2 construct: GSK-3β (AA 1-420)
Description: Compounds were screened for their ability to inhibit GSK-3β (AA 1-420) activity using a standard coupled enzyme system (Fox et al. (1998) Protein Sci. 7, 2249). Reactions were carried out in a solution containing 100 mM HEPES (pH 7.5), 10 mM MgCl2, 25 mM NaCl, 300 μM NADH, 1 mM DTT and 1.5% DMSO. Final substrate concentrations in the assay were 20 μM ATP (Sigma Chemicals, St Louis, Mo.) and 300 μM peptide (HSSPHQS (PO3H2) EDEEE, American Peptide, Sunnyvale, Calif.). Reactions were carried out at 30° C. and 20 nM GSK-3β. Final concentrations of the components of the coupled enzyme system were 2.5 mM phosphoenolpyruvate, 300 μM NADH, 30 μg/ml pyruvate kinase and 10 μg/ml lactate dehydrogenase.
An assay stock buffer solution was prepared containing all of the reagents listed above with the exception of ATP and the test compound of interest. The assay stock buffer solution (175 μl) was incubated in a 96 well plate with 5 μl of the test compound of interest at final concentrations spanning 0.002 μM to 30 μM at 30° C. for 10 min. […] The reaction was initiated by the addition of 20 μl of ATP (final concentration 20 μM). Rates of reaction were obtained using a Molecular Devices Spectramax plate reader (Sunnyvale, Calif.) over 10 min at 30° C. The Ki values were determined from the rate data as a function of inhibitor concentration.

T2 sequence (P49841 whole entry, the tested form may be a part): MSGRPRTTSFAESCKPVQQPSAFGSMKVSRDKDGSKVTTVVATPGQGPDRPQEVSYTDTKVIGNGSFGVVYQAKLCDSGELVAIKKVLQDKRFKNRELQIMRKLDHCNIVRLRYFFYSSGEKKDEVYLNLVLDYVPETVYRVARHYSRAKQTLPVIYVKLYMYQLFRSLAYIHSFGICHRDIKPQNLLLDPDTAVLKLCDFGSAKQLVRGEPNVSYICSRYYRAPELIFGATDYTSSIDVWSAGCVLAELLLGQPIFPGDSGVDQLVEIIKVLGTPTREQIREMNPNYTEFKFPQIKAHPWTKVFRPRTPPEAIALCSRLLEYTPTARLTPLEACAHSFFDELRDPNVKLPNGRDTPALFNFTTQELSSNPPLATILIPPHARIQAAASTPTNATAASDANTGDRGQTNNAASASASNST

Row | Structure (SMILES) | Ki (Aurora-2) | melting point | Ki (GSK-3β (AA 1-420))
1 | Cc1cc(Nc2cc(-c3ccccc3)nc(Sc3ccc(NS(=O)(=O)C(C)C)cc3)n2)n[nH]1 [IIIa-24, [2-(4-Isopropanesulfonylamino-phenyl-sulfanyl)-6-phenyl-pyrimidin-4-yl]-(5-methyl-2H-pyrazol-3-yl)-amine] |  | 255 to 257 °C | < 100 nM
2 | Cc1cc(Nc2cc(N3CCOCC3)nc(SCc3cccc(Cl)c3)n2)n[nH]1 [IIIa-26, [2-(3-Chloro-benzylsulfanyl)-6-morpholin-4-yl-pyrimidin-4-yl]-(5-methyl-2H-pyrazol-3-yl)-amine] |  | 224 to 225 °C | 100 to 1000 nM
3 | COCCNc1cc(Nc2cc(C)[nH]n2)nc(SCc2cccc(Cl)c2)n1 [IIIa-27, [2-(3-Chloro-benzylsulfanyl)-6-(2-methoxy-ethylamino)-pyrimidin-4-yl]-(5-methyl-2H-pyrazol-3-yl)-amine] |  | 101 to 102 °C | < 100 nM
4 | Cc1cc(Nc2cc(N3CCOCC3)nc(SCc3ccc4ccccc4c3)n2)n[nH]1 [IIIa-42, (5-Methyl-2H-pyrazol-3-yl)-[6-morpholin-4-yl-2-(naphthalene-2-ylmethylsulfanyl)-pyrimidin-4-yl]-amine] | 1000 to 10000 nM |  | 100 to 1000 nM
5 | c1ccc(-c2cc(Nc3cc(C4CC4)[nH]n3)nc(Oc3ccc4ccccc4c3)n2)cc1 [IIIb-1] | 100 to 1000 nM |  | 
6 | c1ccc2cc(Oc3nc(Nc4cc(C5CC5)[nH]n4)cc(N4CCOCC4)n3)ccc2c1 [IIIb-7] | 100 to 1000 nM |  | 100 to 1000 nM
7 | COc1nc(Nc2cc(C)[nH]n2)cc(N2CCN(C)CC2)n1 [IIIb-14] | 1000 to 10000 nM |  | < 100 nM
8 | Cc1cc(Nc2cc(-c3ccccc3)nc(Oc3ccc(NC(=O)C4CC4)cc3)n2)n[nH]1 [IIIb-16] | 100 to 1000 nM |  | 100 to 1000 nM
9 | CCc1cc(Nc2cc(C)[nH]n2)nc(Nc2ccc(Cl)cc2)n1 [IIIc-12, [2-(4-Chlorophenyl)amino-6-ethyl-pyrimidin-4-yl]-(5-methyl-2H-pyrazol-3-yl)-amine] | < 100 nM |  | < 100 nM
10 | COc1ccc(Sc2nc(Nc3cc(C4CC4)[nH]n3)c3ccccc3n2)cc1OC [IIa-25, (5-Cyclopropyl-2H-pyrazol-3-yl)-[2-(3,4-dimethoxyphenylsulfanyl)-quinazolin-4-yl]-amine] | < 100 nM |  | 1000 to 7000 nM
11 | CC(=O)Nc1ccc(Sc2nc(Nc3cc(C)[nH]n3)c3ccc([N+](=O)[O-])cc3n2)cc1 [IIa-53, [2-(4-Acetamido-phenylsulfanyl)-7-nitroquinazolin-4-yl]-(5-methyl-2H-pyrazol-3-yl)-amine] | < 100 nM |  | 
12 | CC(=O)Nc1ccc(Sc2nc(Nc3cc(C)[nH]n3)c3ccc(NO)cc3n2)cc1 [IIa-56, [2-(4-Acetamido-phenylsulfanyl)-7-hydroxyaminoquinazolin-4-yl]-(5-methyl-2H-pyrazol-3-yl)-amine] | < 100 nM |  | 
13 | Cc1cc(Nc2nc(Nc3cccc(Cl)c3)nc3ccccc23)n[nH]1 [IIc-11, [2-(3-Chlorophenylamino)-quinazolin-4-yl]-(5-methyl-2H-pyrazol-3-yl)-amine] | < 100 nM |  | < 100 nM
14 | c1ccc(CCNc2nc(Nc3cc(C4CC4)[nH]n3)c3ccccc3n2)cc1 [IIc-28, (5-Cyclopropyl-2H-pyrazol-3-yl)-(2-phenetylamino-quinazolin-4-yl)-amine] | < 100 nM |  | 100 to 1000 nM
15 | Cc1cc(Nc2nc(Nc3ccc4oc(=O)c5ccccc5c4c3)nc3ccccc23)n[nH]1 [IIc-62] |  | 293 to 298 °C | 1000 to 7000 nM
16 | FC(F)(F)c1cccc(Nc2nc(Nc3n[nH]c4ccccc34)c3ccccc3n2)c1 [IIc-71, (1H-Indazol-3-yl)-[2-(3-trifluoromethylphenylamino)-quinazolin-4-yl]-amine] | 1000 to 10000 nM |  | 1000 to 7000 nM

The remaining lines, values ahead:

Row | Ki (Aurora-2) | melting point | Ki (GSK-3β (AA 1-420)) | Structure (SMILES)
17 | 100 to 1000 nM |  |  | CSc1nc(Nc2cc(C)[nH]n2)cc(N2CCN(C)CC2)n1 [IIIa-14, [6-(4-Methylpiperazin-1-yl)-2-methylsulfanyl-pyrimidin-4-yl]-(5-methyl-2H-pyrazol-3-yl)-amine]
18 |  | 241 to 245 °C | 100 to 1000 nM | COc1ccc(-c2cc(Nc3cc(C)[nH]n3)nc(Sc3ccc(NC(C)=O)cc3)n2)cc1 [IIIa-22, [2-(4-Acetamido-phenyl-sulfanyl)-6-(4-methoxyphenyl)-pyrimidin-4-yl]-(5-methyl-2H-pyrazol-3-yl)-amine]
19 |  | 227 to 230 °C | 100 to 1000 nM | CC(=O)Nc1ccc(Sc2nc(Nc3cc(C)[nH]n3)cc(-c3cccc(NC(C)=O)c3)n2)cc1 [IIIa-23, [6-(3-Acetamidophenyl)-2-(4-acetamido-phenyl-sulfanyl)-pyrimidin-4-yl]-(5-methyl-2H-pyrazol-3-yl)-amine]
20 |  | 208 to 209 °C | 100 to 1000 nM | CCC(=O)Nc1ccc(Sc2nc(Nc3cc(C4CC4)[nH]n3)cc(-c3ccccc3)n2)cc1 [IIIa-33, (5-Cyclopropyl-2H-pyrazol-3-yl)-[6-phenyl-2-(4-propionylamino-phenyl-sulfanyl)-pyrimidin-4-yl]-amine]
21 | 100 to 1000 nM |  |  | COC(=O)c1cccc(Oc2nc(Nc3cc(C4CC4)[nH]n3)cc(-c3ccccc3)n2)c1 [IIIb-2]
22 | 1000 to 10000 nM |  |  | CN1CCN(c2cc(Nc3cc(C4CC4)[nH]n3)nc(Oc3ccc4ccccc4c3)n2)CC1 [IIIb-8]
23 | 1000 to 10000 nM |  |  | Cc1cc(Nc2cc(-c3c(C)cccc3C)nc(Oc3ccc4ccccc4c3)n2)n[nH]1 [IIIb-9]
24 | 100 to 1000 nM |  | 100 to 1000 nM | CCC(=O)Nc1ccc(Oc2nc(Nc3cc(C)[nH]n3)cc(-c3ccccc3)n2)cc1 [IIIb-15]
25 | 100 to 1000 nM |  | < 100 nM | Cc1cc(Nc2cc(-c3ccco3)[nH]n2)nc(Nc2ccc(Cl)cc2)n1 [IIIc-9, [2-(4-Chlorophenyl)amino-6-methyl-pyrimidin-4-yl]-[5-(furan-2-yl)-2H-pyrazol-3-yl]-amine]
26 | 1000 to 10000 nM |  | 1000 to 7000 nM | CCc1cc(Nc2cc(C)[nH]n2)nc(Nc2nc3ccccc3[nH]2)n1 [IIIc-10, [2-(Benzimidazol-2-ylamino-)6-ethyl-pyrimidin-4-yl]-(5-methyl-2H-pyrazol-3-yl)-amine]
27 | 100 to 1000 nM |  | < 100 nM | Cc1cc(Nc2cc(-c3ccccc3)[nH]n2)nc(Nc2ccc(Cl)cc2)n1 [IIIc-11, [2-(4-Chlorophenyl)amino-6-methyl-pyrimidin-4-yl]-(5-phenyl-2H-pyrazol-3-yl)-amine]
28 | < 100 nM |  | < 100 nM | c1ccc(Nc2nc(Nc3cc(-c4ccco4)[nH]n3)cc(-c3ccccc3)n2)cc1 [IIIc-15, [5-(Furan-2-yl)-2H-pyrazol-3-yl]-(6-phenyl-2-phenylamino-pyrimidin-4-yl)-amine]
29 | 100 to 1000 nM |  | < 100 nM | CCc1cc(Nc2cc(C)[nH]n2)nc(C(C)(C)c2ccccc2)n1 [IIId-20]
30 | < 100 nM |  | 100 to 1000 nM | COc1cccc(Nc2nc(Nc3cc(C)[nH]n3)c3ccccc3n2)c1 [IIc-56, [2-(3-Methoxyphenylamino)-quinazolin-4-yl]-(5-methyl-2H-pyrazol-3-yl)-amine]
31 | < 100 nM |  | 1000 to 7000 nM | COc1ccc(Nc2nc(Nc3cc(C)[nH]n3)c3ccccc3n2)cc1-c1ccccc1 [IIc-58, [2-(2-Methoxybiphenyl-5-ylamino)-quinazolin-4-yl]-(5-methyl-2H-pyrazol-3-yl)-amine]
32 | 1000 to 10000 nM |  | 100 to 1000 nM | Clc1ccccc1Nc1nc(Nc2n[nH]c3ccccc23)c2ccccc2n1 [IIc-75, [2-(2-Chloro-phenyl)-amino-quinazolin-4-yl]-(1H-indazol-3-yl)-amine]
